Data: patent US20030170643A1, “Regulation of apoB treatment and drug screening for cardiovascular and metabolic disorders or syndromes” (priority 1999, published 2003)

Molecular target: T1, MTP (Rattus norvegicus, UniProt D4A1W8)
T1 construct: endogenous in cells; host or cells: rat primary hepatocytes (male Sprague-Dawley), cell lysate
T1 sequence (D4A1W8 22-896): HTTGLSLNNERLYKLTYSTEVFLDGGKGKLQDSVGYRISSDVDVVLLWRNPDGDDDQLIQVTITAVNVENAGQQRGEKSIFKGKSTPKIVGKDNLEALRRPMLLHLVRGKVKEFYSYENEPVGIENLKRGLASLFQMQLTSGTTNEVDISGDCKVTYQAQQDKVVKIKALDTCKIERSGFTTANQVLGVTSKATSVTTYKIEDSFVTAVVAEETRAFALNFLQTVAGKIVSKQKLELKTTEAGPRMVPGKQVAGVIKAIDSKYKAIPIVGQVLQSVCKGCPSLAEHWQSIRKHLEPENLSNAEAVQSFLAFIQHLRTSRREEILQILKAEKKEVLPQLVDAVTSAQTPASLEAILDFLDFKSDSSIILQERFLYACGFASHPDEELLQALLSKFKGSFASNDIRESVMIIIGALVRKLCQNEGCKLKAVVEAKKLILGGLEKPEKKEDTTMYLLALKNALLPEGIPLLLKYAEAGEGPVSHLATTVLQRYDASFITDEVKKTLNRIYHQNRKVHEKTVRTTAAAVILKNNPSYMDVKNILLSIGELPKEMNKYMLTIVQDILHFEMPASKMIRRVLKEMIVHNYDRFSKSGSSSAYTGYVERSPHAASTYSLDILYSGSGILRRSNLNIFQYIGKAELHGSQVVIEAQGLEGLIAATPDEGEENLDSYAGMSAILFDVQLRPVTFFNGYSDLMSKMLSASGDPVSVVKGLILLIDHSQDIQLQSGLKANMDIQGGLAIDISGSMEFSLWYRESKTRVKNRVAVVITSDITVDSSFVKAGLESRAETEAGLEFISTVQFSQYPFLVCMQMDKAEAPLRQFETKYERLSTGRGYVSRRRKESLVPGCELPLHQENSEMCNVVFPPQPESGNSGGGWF
T1 sequence (P04785 20-509 partner): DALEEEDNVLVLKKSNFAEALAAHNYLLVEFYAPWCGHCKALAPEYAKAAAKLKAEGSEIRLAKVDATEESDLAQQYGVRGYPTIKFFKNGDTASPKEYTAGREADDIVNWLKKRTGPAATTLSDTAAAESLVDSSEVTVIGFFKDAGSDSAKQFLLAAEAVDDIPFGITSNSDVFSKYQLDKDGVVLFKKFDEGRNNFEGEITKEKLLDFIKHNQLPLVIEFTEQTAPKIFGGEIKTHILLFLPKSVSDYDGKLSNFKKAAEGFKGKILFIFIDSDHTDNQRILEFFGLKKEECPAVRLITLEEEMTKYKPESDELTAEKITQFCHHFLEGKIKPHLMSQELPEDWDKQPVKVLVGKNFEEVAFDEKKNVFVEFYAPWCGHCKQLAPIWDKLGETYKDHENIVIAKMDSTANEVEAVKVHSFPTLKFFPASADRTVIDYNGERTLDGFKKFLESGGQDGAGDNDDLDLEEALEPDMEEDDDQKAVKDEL
Assay: MTP activity in lysates of fatty acid-pretreated rat primary hepatocytes
Format: biochemical
Settings: hepatocytes pre-treated 6 hr with BSA, OA or EPA
Protocol: Three methods were used to assess possible effects of Ω-3 fatty acids on cellular MTP function. First, rat primary hepatocytes were incubated with BSA, OA, or EPA, and then MTP activity in cell lysates was measured using a fluorescent assay (Roar Biomedical, New York, NY). Second, to determine if lipid classes synthesized in the presence of OA or Ω-3 fatty acid are equivalent substrates for MTP, primary rat hepatocytes or HepG2 cells were incubated with tritiated OA or EPA, total cellular lipids were extracted into isopropanol, and biosynthetically labeled cholesteryl ester, triglyceride, and phospholipids were separated by preparative thin layer chromatography. […] Transfer of the labeled lipids to acceptor vesicles in the presence of 50 μg of purified bovine MTP was measured as described in Jamil, H. et al (1995) J Biol Chem 270(12), 6549-54.
First, it was necessary to test the possibility that Ω-3 fatty acids stimulate apob degradation by impeding MTP-dependent early lipidation, thereby targeting apoB to proteasomes. Rat primary hepatocytes were pre-treated for 6 hr with BSA, OA, or EPA, and then the MTP activity in lysates of these cells was assessed using artificial donor and acceptor vesicles, with [^14C]triolein as the MTP substrate, as described in Jamil, H. et al. (1995) J Biol Chem 270(12), 6549-54.

## CCCCCCCC/C=C\CCCCCCCC(=O)O [OA, oleic acid]
  MTP-mediated transfer of labeled triolein in cell lysates: No difference
